A short description of one series: method code SF-HPLC, from DOI: 10.1002/jps.2600750811, PMID: 3772750.
Conditions: not given
With `CCC(C(=O)OCc1ccccc1)C(COC(=O)Cc1ccccc1)Cc1cncn1C` (stereo unspecified), the lipophilicity (logP) was determined as 4. The same measure, in the same setting: with `CC[C@H](C(=O)OCc1ccccc1)[C@H](COC(=O)c1cccnc1)Cc1cncn1C` the figure was 3.05; with `CC[C@H](C(=O)OCc1ccc(Cl)cc1)[C@H](COC(=O)c1ccccc1)Cc1cncn1C`, 4.9. The same measure, in the same setting: with `CC[C@H](C(=O)OCc1ccccc1)[C@H](COC(=O)c1ccccc1)Cc1cncn1C` the figure was 4.37.

The series is the same for the next values; noted with them: pH 7.4.
As for `CC[C@H](C(=O)OCc1ccc(C)cc1)[C@H](COC(=O)C(C)(C)C)Cc1cncn1C`, the logD came out at 4.4.

In turn, `CC[C@H](C(=O)OCc1ccc(C)cc1)[C@H](COC(=O)c1ccccc1)Cc1cncn1C` had a logD of 4.7. Still for that read-out and setting: to `CCCCCC(=O)OCC(Cc1cncn1C)C(CC)C(=O)OCc1ccccc1` (stereo unspecified) belongs 4.6. In the case of `CC[C@H](C(=O)OCc1ccc(C)cc1)[C@H](COC(C)=O)Cc1cncn1C`, the logD worked out at 3.16. The same measure, in the same setting: with `CCCC(=O)OC[C@H](Cc1cncn1C)[C@H](CC)C(=O)OCc1ccc(C)cc1` the figure was 4.19; with `CCCC(=O)OCC(Cc1cncn1C)C(CC)C(=O)OCc1ccccc1` (stereo unspecified), 3.63. On the same count and under the same terms, to `CC[C@H](C(=O)OCc1ccccc1)[C@H](COC(=O)c1cccc(Cl)c1)Cc1cncn1C` belongs 4.93.

Values taken from the SangsterLogP compilation.
